Patent US20220378763A1, “COMPOUND FOR TREATMENT OF ACUTE INFLAMMATION IN THE MYOCARDIUM” (CALPROTECT AB, priority 2019, published 2022)

Experiments:
Assay type in all cases: in vivo, mouse
[1] = system: C57BL/6 mice with sepsis induced by bacterial lipopolysaccharide; assay: LPS-induced sepsis: plasma cytokines by multiplex assay; settings: 24 h after sepsis induction, vs PBS
Protocol: General animal care, induction of sepsis and treatments were performed as described under Example 7. We included 5 mice per treatment group. The mice were sacrificed 24 h after sepsis induction and blood was drawn using cardiac puncture with an EDTA 0.5M coated syringe. Blood was spun down at 3000 rpm for 10 minutes and plasma was collected.
Cytokine measurements were performed using the Cytokine & Chemokine 36-Plex Mouse procartaPlex™ P1A (ThermoFischer Scientific) as per manufacturer's instructions. Data are presented as mean±SD.

[2] = system: C57BL/6 mice with sepsis induced by bacterial lipopolysaccharide; assay: LPS-induced sepsis: echocardiography; settings: 30 mg/kg i.p. at 0 and 6 h after LPS
Protocol: Female C57BL/6NRJ mice, 10 weeks of age, were purchased from Janvier Labs and housed under 12 h:12 h light:dark cycles with access to food and water ad libitum. The mice were randomly assigned to the two treatment groups, n=5 mice per group. Sepsis was induced by intraperitoneal (i.p.) injection of 5 mg/kg bacterial lipopolysaccharide (Sigma-Aldrich) in all animals. Immediately thereafter and 6 h later, the mice received treatment with 30 mg/kg ABR-238901 or an equivalent volume of PBS administered i.p. The mice were monitored daily to ensure their well-being. All mouse studies were approved by the Animal Research Ethics Committee of Lund University.
Transthoracic echocardiography was performed at baseline before induction of sepsis, and at 6 h, 12 h and 24 h using the Vevo 3100 platform (VisualSonics) equipped with a MX550D imaging transducer. Anesthesia was induced with 2% Isoflurane (AbbVie) and maintained with 1.25% Isoflurane throughout imaging. Hair was removed using depilatory cream before the application of pre-warmed ultrasound gel. Parasternal long axis recordings were performed in the plane containing the aortic valves and a maximal apex view. Analysis was carried out using the VevoLab software (Visual Sonics). Briefly, the perimeter and long axis of the left ventricle were traced at the end of diastole and at the end of systole and used to calculate left ventricular end-systolic and end-diastolic volumes. Left ventricular stroke volume was calculated as the difference between the left ventricular end-diastolic and end-systolic volumes. Left ventricular ejection fraction was calculated as percentage stroke volume out of the end-diastolic volume. Cardiac output was calculated by multiplying the stroke volume with the heart rate at the time of the examination.

[3] = system: C57BL/6 mice with induced MI; assay: Flow cytometry of myeloid cells and reparatory macrophages on day 7 post-MI; settings: for Intra-myocardial counts of reparatory macrophages vs PBS-treated MI controls: hearts collected 7 days post-MI
Protocol: Immune cells from blood, spleen, heart and bone-marrow were collected at 2 or 7 days post-MI, and analysed by flow-cytometry. Mice were anesthetized by intraperitoneal injection of a mixture of xylazine (10 mg/kg) and ketamine (100 mg/kg). After 10 minutes, blood was collected by cardiac punction. Thereafter, the spleen was removed and the heart was perfused with 5 ml ice-cold PBS. Perfused hearts were excised and collected into tubes with PBS and kept on ice. Femurs and tibias from each mouse were used to obtain whole bone marrow for analysis. Blood was stained with fluorochrome-labelled antibodies against mouse monocyte and neutrophil markers diluted in MACS buffer (PBS, 10% FCS and 0.5% BSA), followed by treatment with erythrocyte lysis buffer, washing and analysis. Spleens were mashed trough a cell strainer in ice-cold PBS. Hearts were cut into small pieces and placed into tubes containing 2.5 ml digestion cocktail (Collagenase I, 450 U/ml; Collagenase XI, 125 U/ml; DNAase I, 60 U/ml; Hyaluronidase type 1-5, 60 U/ml diluted in PBS containing Ca and Mg) incubated for 1 h at 37° C. with shaking at 220 rpm. Bone marrow was flushed from femur and tibia using ice-cold PBS. Cell suspensions from spleen, heart and bone marrow were filtered through a 40 um cell strainer (BD), treated with erythrocyte lysis buffer, washed and stained. For intracellular staining, cells were fixed, permeabilized and stained. Cell populations were analyzed by flow cytometry in a Gallios Flow Cytometer (Backman Coulter), and the results were analyzed using FlowJo (FlowJo®, LLC; Tree Star). The following anti-mouse antibodies were used for the flow cytometric analysis: anti-CD45 (30-F11), anti-CD11b (M1/70), anti-Ly6C (HK1.4), anti-CD115 (AFS98), anti-Ly6G (1A8), anti-F4/80 (BM8), anti-CCR2 (475301), anti-Ter119 (TER119), anti-Gr1 (RB6-8C5), anti-CD45R/B220 (RA3-6B2), anti-CD3ξ (145-2C11), anti-NK1.1 (PK136), anti-Ly6A/E (Sca-1) (E13-1617), anti-CD117 (c-kit) (2B8), anti-CD48 (HM48.1), anti-CD150/SLAM (TC15-12F12.2), anti-CD16/32 (93), anti-CD34 (MEC14.7) (all from BioLegend, San Diego, Calif., USA); anti-MerTK (DSSMMER) and anti-Nur77 (12.14) (eBioscience).
MI induction and other procedures were carried out as outlined in Example 2. For long-term experiments of up to 21 days, a daily dose of 30 mg/Kg ABR-238901 was diluted in PBS and administered by daily i.p. injections for the first 3 days post-MI until the mice recovered and started to drink normally, and thereafter p.o. ad-libitum in meglumine buffer (FIG. 4A). Adequate treatment dosage was ensured by closely monitoring daily fluid intake.
In an attempt to explain these intriguing results, we assessed the effects of the extended treatment on the presence of myeloid cells in blood, spleen, bone marrow and myocardium, with particular emphasis on cellular populations involved in myocardial repair. The cellular infiltration was analysed by flow cytometry on day 7, at the peak of the reparatory post-MI period. […] Reparatory macrophages in the ischemic myocardium have previously been defined as CD11b^+F4/80^+Ly6C^lo cells. […] In order to investigate the possible mechanisms leading to impaired cardiac function in mice receiving long-term S100A9 blockade, we examined the presence and function of Ly6C^loMerTK^hi macrophages in the myocardium at 7 days post-MI. We found an approximately 50% reduction of the number of reparatory macrophages in hearts of mice receiving ABR-238901 compared to controls (FIG. 40). […] In order to test the functional importance of these findings, we used α-MHC-mCherry mice expressing cardiac-specific red fluorescent Cherry protein under the mouse a-myosin heavy-chain promoter.
Reparatory macrophage numbers were analysed in hearts collected at 7 days post-MI from mice with induced MI treated with ABR-238901 for 3 or 7 days.

[4] = treatment for 7 days, 7 days post-MI

COc1ncc(S(=O)(=O)Nc2cncc(Cl)c2O)cc1Br [ABR-238901, 5-bromo-N-(5-chloro-4-hydroxypyridin-3-yl)-6-methoxypyridine-3-sulfonamide]
Plasma level of GM-CSF [1]: decreased
Plasma level of IFN-γ [1]: decreased
Plasma level of IL17-A [1]: decreased
Plasma level of IL-1b [1]: decreased
Plasma level of IL-6 [1]: decreased
Plasma level of IL-22 [1]: decreased
Plasma level of LIF [1]: decreased
Plasma level of LIX [1]: decreased
Plasma level of MCP-1 [1]: decreased
Left ventricular ejection fraction (LVEF) ([2]; 12 h): 44.7%
Cardiac output ([2]; 24 h): 9.17 mL/min
Left ventricular ejection fraction (LVEF) ([2]; 24 h): 54.74%
Intra-myocardial counts of reparatory macrophages vs PBS-treated MI controls ([3]; 3 days treatment): on par with
Intra-myocardial counts of reparatory macrophages vs PBS-treated MI controls ([3]; continuous treatment for 7 days): significantly lower
Percentage of reparatory Ly6CloMerTKhi out of total CD11b+F4/80+ macrophages [3, 4]: significantly decreased
Reduction of the number of reparatory Ly6CloMerTKhi macrophages in hearts vs controls [3, 4]: approximately 50%
Cell counts in the bone marrow ([3]; treatment for 7 days, day 7): no differences
Monocytes in the spleen vs MI controls ([3]; treatment for 7 days, day 7): accumulation
Numbers of circulating monocytes ([3]; treatment for 7 days, day 7): significantly lower
Numbers of circulating neutrophils ([3]; treatment for 7 days, day 7): significantly lower
Numbers of neutrophils in the spleen ([3]; treatment for 7 days, day 7): not significantly affected
Presence of monocytes in the heart ([3]; treatment for 7 days, day 7): potently reduced
Presence of total CD11b+F4/80+ macrophages in the heart ([3]; treatment for 7 days, day 7): potently reduced
